Data: PubChem BioAssay AID489023 (Sanford-Burnham Center for Chemical Genomics, 2010)
Activity calls are given as the source filed them. How the calls were made is not given here.

Test system: 697B cells, BCR-induced NF-kB luciferase reporter luminescence
Test: B-cell receptor NF-kB reporter inhibition – 697B cells, luciferase luminescence, dose response (AID 489023)

SMILES | IC50
COc1ccc(-c2ccc(OC)c([C@H]3[C@H]4C=CC[C@@H](C)[C@@H]4C(=O)N3Cc3ccccc3)c2)cc1 | > 80 µM (inactive)
COC(=O)[C@@H]1Cc2c([nH]c3ccccc23)C(C)(C)N1C(=O)CCl | 1.12 µM
CN1CCN(C(=O)c2ccccc2N(Cc2ccccc2)S(=O)(=O)c2ccccc2)CC1 | 29.2 µM (inactive)
COC(=O)C1=C(c2ccc(-c3ccccc3)c(F)c2)C[C@@H]2CC[C@H]1N2C(=O)N1CCCC1 | 73.9 µM (inactive)
COc1ccc(C(=O)Nc2ccccc2C(=O)NCc2ccco2)cc1OC | > 80 µM (inactive)
CC1Cc2ccccc2N1S(=O)(=O)c1cnc(Cl)c(Cl)c1 (configuration not stated) | > 80 µM (inactive)
CN(C)CCCN=Cc1c(-c2ccccc2)[nH]n(-c2nc3ccccc3s2)c1=O | 5.81 µM
COC(=O)c1[nH]c2ccc(C)cc2c1NC(=O)Nc1ccccc1OC | > 80 µM (inactive)
Cc1cc(C)cc(NC(=O)Nc2ccc(NC(=O)c3ccccc3O)cc2)c1 | > 80 µM (inactive)
COc1cc(-c2nc3ccc(N4CCN(C)CC4)cc3[nH]2)cc(OC)c1OC | > 80 µM (inactive)
C=CCOc1ccccc1CN(C(=O)CCl)c1ccc2c(c1)OCO2 | 0.72 µM
O=C(CN1C(=O)c2ccccc2S1(=O)=O)c1ccc(OC(F)F)cc1 | 1.83 µM
O=C(O)CCSc1ncnc2sc(-c3ccccc3)cc12 | 2.29 µM
CC1CCc2c(sc3nc(C(C)(C)C)nc(N4CCN(C(=O)CCl)CC4)c23)C1 (configuration not stated) | 0.68 µM
O=C(Oc1cccc(/C=N/Nc2nc(N3CCOCC3)nc(N3CCOCC3)n2)c1)c1ccco1 | 18.4 µM
O=C(NNC(=O)C12CC3CC(CC(Br)(C3)C1)C2)c1ccccc1F | 12.1 µM
CCOC(=O)c1nn(-c2ccccc2)c(C#N)c1NC(=O)c1nn(CC)cc1Br | > 80 µM (inactive)
COc1cc(-c2nc3n(n2)C(c2ccc(F)cc2)C2=C(CCCC2=O)N3)cc(OC)c1OC (configuration not stated) | 65.5 µM (inactive)
Cc1csc(NC(=O)/C=C/c2ccc3c(c2)OCO3)n1 | 6.13 µM
C=C(C)[C@@H]1CCC2(C(=O)O)CC[C@]3(C)[C@H](CC[C@@H]4[C@@]5(C)CCC(=O)C(C)(C)[C@@H]5CC[C@]43C)[C@@H]12 (some centres not stated) | 71.6 µM (inactive)
COc1ccc(-n2c(-c3ccc(Br)cc3)c[n+]3c2CCc2ccccc2-3)cc1 | > 80 µM (inactive)
CC(C)c1[nH]nc2c1C(c1ccco1)C(C#N)=C(N)O2 (configuration not stated) | > 80 µM (inactive)
COCCNC(=O)CSCc1nc(-c2ccc(SC)cc2)oc1C | 4.56 µM

SMILES | IC50
COc1ccc(-c2nn(C)c(=O)c3ccccc23)cc1NS(C)(=O)=O | 39.9 µM (inactive)
O=C(O)CCSc1nc2ccccc2s1 | 10.1 µM
O=S(=O)(NCc1ccncc1)c1ccc(Br)s1 | > 80 µM (inactive)
Cc1ccc(S(=O)(=O)CC2CSc3nc4ccccc4n32)cc1 (configuration not stated) | > 80 µM (inactive)
CCN1C(=O)c2cccc3c(S(=O)(=O)NCC4CCCO4)ccc1c23 (configuration not stated) | 69.7 µM (inactive)
CCC(C)N1C(=O)/C(=C/c2c(NCCCOC(C)C)nc3c(C)cccn3c2=O)SC1=S (configuration not stated) | > 80 µM (inactive)
Cc1cc(-c2cc(C(=O)NCc3ccccc3)on2)nc(S(C)(=O)=O)n1 | 3.93 µM
CCc1ccc(-c2nnn(CCC(=O)OC)n2)cc1 | 5.46 µM
CCOc1ccc(/C=C2\SC(=S)N(CCCC(=O)NCCCN3CCOCC3)C2=O)cc1 | 0.43 µM
O=C(CCCN1C(=O)S/C(=C\C=C\c2ccccc2)C1=O)Nc1ccc(O)cc1 | 2.99 µM
O=C(N/N=C/c1ccc(Cl)cc1Cl)c1ccc(-n2cnnn2)cc1 | > 80 µM (inactive)
O=C(CCCN1C(=O)/C(=C/c2ccccc2Cl)SC1=S)NNC(=O)c1ccccc1 | 12.5 µM
Cc1nc2cc(-c3ccccc3)nn2c(C)c1CCC(=O)N1CCC2(CC1)OCCO2 | > 80 µM (inactive)
Cc1cc(NC(=O)CCCN2C(=O)/C(=C/c3ccccc3Cl)SC2=S)no1 | 8.86 µM
COc1ccc(C(=O)Nc2cccc(NC(=O)c3ccc(OC)c(OC)c3)n2)cc1OC | 3.64 µM
COc1cc(-c2nc(C(=O)NCC3CCCO3)cc3c2[nH]c2ccccc23)cc(OC)c1OC (configuration not stated) | 12.2 µM
CC1CN(S(=O)(=O)c2ccc(C(=O)Nc3nc(-c4cc5ccccc5o4)cs3)cc2)CC(C)O1 (configuration not stated) | > 80 µM (inactive)
COc1ccc(/C=C2/SC(=S)N(CCC(=O)O)C2=O)cc1 | 2.46 µM
COc1ccc(/C=C\C(=O)O[C@@H]2C(O)C(O[C@@H]3OC(C)[C@H](O[C@@H]4OCC(O[C@H]5O[C@H](CO)[C@@H](O)C(O)C5O)C(O)C4O)C(O)C3O)[C@H](OC(=O)[C@]34CCC(C)(C)C[C@@H]3C3=CCC5[C@@]6(C)CC(O)C(O[C@@H]7OC(CO)C(O)[C@H](O)[C@H]7O)[C@@](C)(C(=O)O)C6CC[C@@]5(C)[C@]3(CO)CC4)O[C@H]2C)cc1 (some centres not stated) | 19.8 µM
Nc1ccc(-c2cc3ccccc3oc2=O)cc1 | 0.39 µM
COc1ccc(NC(=O)CN(C)C(=O)C2(c3ccccc3)CCCC2)cc1 | 3.56 µM
Cc1noc(C)c1CSc1nc2[nH]ncc2c(=O)n1-c1ccccc1 | > 80 µM (inactive)
Cc1c(CCC(=O)N2CCC[C@H]2C(=O)O)c(=O)oc2cc3oc4c(c3cc12)CCCC4 | > 80 µM (inactive)

SMILES | IC50
Cc1cc(OCC(=O)NC2CC2)c2c(C)c(C)c(=O)oc2c1 | > 80 µM (inactive)
CC(=O)c1cn(CCOc2cc(C)ccc2C)c2ccccc12 | > 80 µM (inactive)
Cc1ccc(C(=O)OCC(=O)N(CC(C)C)c2c(N)n(Cc3ccccc3)c(=O)[nH]c2=O)o1 | 20.6 µM (inactive)
COc1ccc(-c2ccc(F)cc2)cc1[C@H]1[C@H]2C=CC[C@@H](C)[C@@H]2C(=O)N1Cc1ccccc1 | > 80 µM (inactive)
CC1=CC(C)(C)Nc2ccc(OC(=O)C(Cc3ccccc3)N3C(=O)c4ccccc4C3=O)cc21 (configuration not stated) | > 80 µM (inactive)
CCN(CC(=O)Nc1c(F)cccc1F)C(=O)c1cc(S(=O)(=O)N(C)C)ccc1N1CCCC1 | 12.2 µM
COc1ccc(-c2noc(N3CCC(C(=O)Nc4ccc(OC)c(OC)c4)CC3)n2)cc1 | > 80 µM (inactive)
CC(C)CN(C(=O)COC(=O)C12CC3CC(CC(C3)C1)C2)c1c(N)n(Cc2ccccc2)c(=O)[nH]c1=O | 5.71 µM
COc1cc(NC(=O)c2ccco2)c(OC)cc1NC(=O)c1cc(OC)c(OC)c(OC)c1 | 24.9 µM (inactive)
Cc1ccc(C2(c3ccc(C)cc3)CC2C(=O)Nc2ccc([N+](=O)[O-])cc2O)cc1 (configuration not stated) | 73.4 µM (inactive)
O=C(Nc1ccc(NC(=O)c2cc3ccccc3o2)cc1)c1ccc2c(c1)OCCO2 | 0.3 µM
CC1CC(C)CN(S(=O)(=O)c2ccc(C(=O)NCCCn3ccnc3)cc2)C1 (configuration not stated) | 5.07 µM
CCOC(=O)c1sc(NC(=O)c2cc(-c3ccccc3C)nc3ccccc23)c(C#N)c1C | 19.3 µM
NC(=O)C1CCN(C(=O)COc2ccc3ccccc3c2Br)CC1 | 39.4 µM (inactive)
O=C(CCCc1nc(-c2ccccc2Cl)no1)NC1CCCC1 | 1.25 µM
COc1ccc(OC)c(NC(=O)c2[nH]c(C)c(C(C)=O)c2C)c1 | > 80 µM (inactive)
COc1cc(-c2cc(=O)c3c(O)c(OC)c(OC)c(OC)c3o2)cc(OC)c1OC | > 80 µM (inactive)
COc1ccc(/C=C2/SC(=S)N(CCCC(=O)Nc3cccc(O)c3)C2=O)cc1 | 3.88 µM
Cc1ccc(/C=C2\SC(=S)N(CCCC(=O)Nc3ccc(O)cc3)C2=O)cc1 | 0.27 µM
Cc1ccc(-c2c[n+]3c(n2-c2ccccc2)SCC3)cc1 | > 80 µM (inactive)
CCn1c(=O)cc(SCC(=O)N2CCCCC2)c2ccccc21 | > 80 µM (inactive)
